Data reported in patent US8765730B2 (Hoffmann-La Roche Inc, priority 2010, dated 2014).
pEC50: −log10 of the molar value.

Biological target: T1, human GPBAR1 receptor (Homo sapiens, UniProt Q8TDU6)
T1 construct: expressed in transfected cells
T1 sequence (Q8TDU6 1-330): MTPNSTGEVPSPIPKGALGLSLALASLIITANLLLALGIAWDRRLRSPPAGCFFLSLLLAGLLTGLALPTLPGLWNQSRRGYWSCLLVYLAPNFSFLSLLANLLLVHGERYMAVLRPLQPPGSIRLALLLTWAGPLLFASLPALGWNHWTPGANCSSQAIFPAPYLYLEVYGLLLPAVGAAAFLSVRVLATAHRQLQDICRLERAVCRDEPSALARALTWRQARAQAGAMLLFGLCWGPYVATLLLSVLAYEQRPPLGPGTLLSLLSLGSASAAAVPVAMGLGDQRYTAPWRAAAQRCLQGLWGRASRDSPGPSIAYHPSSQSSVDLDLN
Experiment: functional cAMP assay in CHO-dhfr(minus) cells expressing human GPBAR1 receptors
Format: cell-based
Conditions: human EC50, functional cAMP assay, 30 min at 30° C.
How it was run: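 Agonist cAMP read-out: stable GPBAR1 CHO-dhfr− clone, 30 min compound exposure at 30° C following 30 min IBMX (1 mM) preincubation in Krebs Ringer bicarbonate. Time-resolved energy-transfer detection gives EC50; parental CHO cells serve as counter-screen.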

SMILES	pEC50
COCCN(C)c1ccc([C@@H](C/C(=N\O)c2ccnc(C)c2)c2ccccc2C)cc1 [Example 267, (E,R)-3-{4-[(2-Methoxy-ethyl)-methyl-amino]-phenyl}-1-(2-methyl-pyridin-4-yl)-3-o-tolyl-propan-1-one oxime]	7.74
Cc1ccccc1C(Cc1ccc(Br)cc1)/C(=N\O)c1ccncc1 (centres unmarked) [Example 44, (E)-3-(4-bromo-phenyl)-1-pyridin-4-yl-2-o-tolyl-propan-1-one oxime]	6.38
Cc1ccccc1[C@H](C/C(=N\O)c1cc(Cl)ncc1F)c1ccc(-c2ccc(C(=O)O)cc2)cc1 [Example 292, 4′-{(R)-3-(2-Chloro-5-fluoro-pyridin-4-yl)-3-[(E)-hydroxyimino]-1-o-tolyl-propyl}-biphenyl-4-carboxylic acid]	8.22
C#Cc1ccc([C@@H](CC(=NO)c2ccnc(C)c2)c2ccccc2C)cc1 [Example 287, (R)-3-(4-Ethynyl-phenyl)-1-(2-methyl-pyridin-4-yl)-3-o-tolyl-propan-1-one oxime]	8.70
Cc1cc(C(CC(c2cccc(-c3cccc(C(=O)O)c3)c2)c2ccccc2C)=NO)ccn1 (racemic) [Example 102, 3′-[3-[Hydroxyimino]-3-(2-methyl-pyridin-4-yl)-1-o-tolyl-propyl]-biphenyl-3-carboxylic acid]	6.49
Cn1cc(/C(CC(c2ccccc2)c2ccccc2)=N/O)ccc1=O [Example 161, 5-{1-[(E)-Hydroxyimino]-3,3-diphenyl-propyl}-1-methyl-1H-pyridin-2-one]	6.92
Cc1cc(C(CC(c2ccc(-c3ccc(C(=O)NCC(=O)O)cc3)cc2)c2ccccc2C)=NO)ccn1 (racemic) [Example 90, ({4′-[3-[Hydroxyimino]-3-(2-methyl-pyridin-4-yl)-1-o-tolyl-propyl]-biphenyl-4-carbonyl}-amino)-acetic acid]	8.00
Cc1cc(C(C[C@@H](c2ccc(-c3ccc(C(=O)N[C@@H](C)C(=O)O)cc3)cc2)c2ccccc2C)=NO)ccn1 (racemic) [Example 95, (S)-2-({4′-[(S)-3-[Hydroxyimino]-3-(2-methyl-pyridin-4-yl)-1-o-tolyl-propyl]-biphenyl-4-carbonyl}-amino)-propionic acid]	7.41
Cc1cc(/C(CC(c2ccc(Br)cc2)c2ncccc2C)=N/O)ccn1 (centres unmarked) [Example 116, (E)-3-(4-Bromo-phenyl)-3-(3-methyl-pyridin-2-yl)-1-(2-methyl-pyridin-4-yl)-propan-1-one oxime]	8.30
Cn1cc(/C(CC(c2ccc(C(=O)N[C@H]3CC[C@H](O)CC3)c(F)c2)c2ccccc2Cl)=N/O)ccc1=O (stereo partly drawn) [Example 217, Trans-4-[1-(2-Chloro-phenyl)-3-[(E)-hydroxyimino]-3-(1-methyl-6-oxo-1,6-dihydro-pyridin-3-yl)-propyl]-2-fluoro-N-(4-hydroxy-cyclohexyl)-benzamide]	6.15
Cc1cc(C(CC(c2cccc(Br)c2)c2ccccc2C)=NO)ccn1 (racemic) [Example 98, 3-(3-Bromo-phenyl)-1-(2-methyl-pyridin-4-yl)-3-o-tolyl-propan-1-one oxime]	6.84
COc1ccc(C2(C/C(=N/O)c3ccnc(C)c3)CCCCC2)cc1 [Example 159, (Z)-2-[1-(4-Methoxy-phenyl)-cyclohexyl]-1-(2-methyl-pyridin-4-yl)-ethanone oxime]	5.25
Cc1cc(/C(CC(c2cccc(CC(=O)O)c2)c2ccccc2C)=N/O)ccn1 (centres unmarked) [Example 105, {3-[3-[(E)-Hydroxyimino]-3-(2-methyl-pyridin-4-yl)-1-o-tolyl-propyl]-phenyl}-acetic acid]	5.99
Cc1ccccc1C(CC(=NO)c1ccncc1)c1ccc(-c2ccc(S(C)(=O)=O)cc2)cc1 (racemic) [Example 33, 3-(4′-Methanesulfonyl-biphenyl-4-yl)-1-pyridin-4-yl-3-o-tolyl-propan-1-one oxime]	7.33
Cc1ccccc1[C@H](C/C(Cc1ccncc1)=N\O)c1ccc(Br)cc1 [Example 261, (E,R)-4-(4-bromophenyl)-1-(pyridin-4-yl)-4-o-tolylbutan-2-one oxime]	7.55
Cc1ccccc1C(CC(=NO)c1ccncc1)c1cccc(Br)c1 (racemic) [Example 11, 3-(3-Bromo-phenyl)-1-pyridin-4-yl-3-o-tolyl-propan-1-one oxime]	7.40
Cc1cc(C(CC(c2ccc(CCCO)cc2)c2ccccc2C)=NO)ccn1 (racemic) [Example 88, 3-[4-(3-Hydroxy-propyl)-phenyl]-1-(2-methyl-pyridin-4-yl)-3-o-tolyl-propan-1-one oxime]	7.92

The remaining lines, values ahead:

pEC50	SMILES
6.00	Cc1ccc(C(C/C(=N\O)c2ccc(=O)n(C)c2)c2ccc(-c3ccc(C(=O)O)cc3)cc2)c(F)c1 (centres unmarked) [Example 411, (E)-4′-(1-(2-fluoro-4-methylphenyl)-3-(hydroxyimino)-3-(1-methyl-6-oxo-1,6-dihydropyridin-3-yl)propyl)biphenyl-4-carboxylic acid]
7.85	Cc1cc(Cl)ccc1C(C/C(=N\O)c1ccc(=O)n(C)c1)c1ccc(CO)cc1 (centres unmarked) [Example 337, (E)-5-(3-(4-Chloro-2-methylphenyl)-1-(hydroxyimino)-3-(4-(hydroxymethyl)phenyl)-propyl)-1-methylpyridin-2(1H)-one]
6.71	Cc1cc(Cl)ccc1C(C/C(=N\O)c1ccc(=O)n(C)c1)c1ccc(OCCCC(=O)O)c(F)c1 (centres unmarked) [Example 327, 4-{4-[1-(4-Chloro-2-methyl-phenyl)-3-[(E)-hydroxyimino]-3-(1-methyl-6-oxo-1,6-dihydro-pyridin-3-yl)-propyl]-2-fluoro-phenoxy}-butyric acid]
6.43	Cc1cc(/C(C[C@H](c2ccc(C3CCN(C(=O)OC(C)(C)C)CC3)cc2)c2ccc(Cl)cc2C)=N/O)ccn1 [Example 387, (R,E)-tert-Butyl 4-(4-(1-(4-chloro-2-methylphenyl)-3-(hydroxyimino)-3-(2-methylpyridin-4-yl)propyl)phenyl)piperidine-1-carboxylate]
6.68	Cn1cc(/C(CC(c2ccc(Br)cc2)c2ccc(F)cc2S(C)(=O)=O)=N/O)ccc1=O (centres unmarked) [Example 409, (E)-5-{3-(4-Bromo-phenyl)-3-(4-fluoro-2-methanesulfonyl-phenyl)-1-(hydroxyimino)-propyl}-1-methyl-1H-pyridin-2-one]
6.82	Cn1cc(/C(CC(c2ccc(-c3ccc(CC(=O)O)cc3)cc2)c2ccc(Cl)cc2F)=N/O)ccc1=O (single isomer, unassigned) [Example 462, {4′-[(+)-1-(4-chloro-2-fluoro-phenyl)-3-[(E)-hydroxyimino]-3-(1-methyl-6-oxo-1,6-dihydro-pyridin-3-yl)-propyl]-biphenyl-4-yl}-acetic acid]
7.17	Cc1cc(Cl)ccc1C(C/C(=N\O)c1ccc(=O)n(C)c1)c1ccc(S(C)(=O)=O)cc1 (single isomer, unassigned; (+)) [Example 334, (+)-(E)-5-(3-(4-chloro-2-methylphenyl)-1-(hydroxyimino)-3-(4-(methylsulfonyl)phenyl)-propyl)-1-methylpyridin-2(1H)-one]
8.70	Cc1cc(/C(C[C@H](c2ccc(N3CCC(C(=O)NCC(=O)O)CC3)cc2)c2ccccc2C)=N/O)ccn1 [Example 369, (R,E)-2-(1-(4-(3-(Hydroxyimino)-3-(2-methylpyridin-4-yl)-1-o-tolylpropyl)phenyl)-piperidine-4-carboxamido)acetic acid]
7.85	Cc1cc(/C(C[C@H](c2ccc(-c3cn(CC(=O)O)nn3)cc2)c2ccccc2C)=N/O)ccn1 (single isomer, unassigned) [Example 425, (4-{4-[(−)-3-[(E)-Hydroxyimino]-3-(2-methyl-pyridin-4-yl)-1-o-tolyl-propyl]-phenyl}-[1,2,3]triazol-1-yl)-acetic acid]
7.23	COC(=O)c1ccc(-c2ccc(C(C/C(=N\O)c3ccnc(C)c3)c3ccc(Cl)cc3F)cc2)cc1F (centres unmarked) [Example 446, 4′-[1-(4-Chloro-2-fluoro-phenyl)-3-[(E)-hydroxyimino]-3-(2-methyl-pyridin-4-yl)-propyl]-3-fluoro-biphenyl-4-carboxylic acid methyl ester]
7.80	Cc1cc(/C(CC(c2ccc(-c3ccc(C(=O)O)cc3C)cc2)c2ccc(Cl)cc2F)=N/O)ccn1 (centres unmarked) [Example 456, 4′-[1-(4-Chloro-2-fluoro-phenyl)-3-[(E)-hydroxyimino]-3-(2-methyl-pyridin-4-yl)-propyl]-2-methyl-biphenyl-4-carboxylic acid]
9.00	Cc1cc(/C(C[C@H](c2ccc(-c3cn(C)nn3)cc2)c2ccccc2C)=N/O)ccn1 [Example 424, (−)-1-(2-Methyl-pyridin-4-yl)-3-[4-(1-methyl-1H-[1,2,3]triazol-4-yl)-phenyl]-3-o-tolyl-propan-1-one oxime]
7.51	CC(=O)N1CC(c2ccc([C@@H](C/C(=N\O)c3ccnc(C)c3)c3ccccc3C)cc2)C1 [Example 483]
6.38	CCOC(=O)c1ccc(-c2ccc([C@H](C/C(=N\O)c3ccc(=O)n(C)c3)c3ccc(Cl)cc3F)cc2)s1 (single isomer, unassigned) [Example 469, 5-{4-[(+)-1-(4-Chloro-2-fluoro-phenyl)-3-[(E)-hydroxyimino]-3-(1-methyl-6-oxo-1,6-dihydro-pyridin-3-yl)-propyl]-phenyl}-thiophene-2-carboxylic acid ethyl ester]
8.70	Cc1cc(/C(C[C@H](c2ccc(-c3ncco3)cc2)c2ccccc2C)=N/O)ccn1 [Example 423]
